Source: US20060239926A1, “Specific high-relaxivity compounds” (GUERBET, priority 2003, published 2006)

Columns and labels:
human MMP-1 [1] = target: T1, human MMP-1 (Homo sapiens, UniProt P03956); settings: value of the peptide component, not of the Gd conjugate, read-out: IC50 OF THE PEPTIDE (LITERATURE); cited from earlier work
T1 sequence (P03956 100-469): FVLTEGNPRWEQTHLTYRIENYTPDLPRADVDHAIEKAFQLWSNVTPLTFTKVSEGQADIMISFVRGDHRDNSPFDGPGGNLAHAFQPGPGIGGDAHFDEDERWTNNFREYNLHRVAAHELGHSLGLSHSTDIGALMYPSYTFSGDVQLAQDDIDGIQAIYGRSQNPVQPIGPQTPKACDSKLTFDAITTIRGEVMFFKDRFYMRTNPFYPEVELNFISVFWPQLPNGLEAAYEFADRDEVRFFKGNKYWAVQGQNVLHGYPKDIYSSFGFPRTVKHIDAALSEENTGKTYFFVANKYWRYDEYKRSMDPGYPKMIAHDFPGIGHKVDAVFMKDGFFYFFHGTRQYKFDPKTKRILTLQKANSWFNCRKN

MMP-2 [2] = target: T2, MMP-2 (Homo sapiens, UniProt P08253); experiment: In vitro MMP-inhibiting activity (fluorimetry), MMP-2; assay type: biochemical
T2 sequence (P08253 110-660): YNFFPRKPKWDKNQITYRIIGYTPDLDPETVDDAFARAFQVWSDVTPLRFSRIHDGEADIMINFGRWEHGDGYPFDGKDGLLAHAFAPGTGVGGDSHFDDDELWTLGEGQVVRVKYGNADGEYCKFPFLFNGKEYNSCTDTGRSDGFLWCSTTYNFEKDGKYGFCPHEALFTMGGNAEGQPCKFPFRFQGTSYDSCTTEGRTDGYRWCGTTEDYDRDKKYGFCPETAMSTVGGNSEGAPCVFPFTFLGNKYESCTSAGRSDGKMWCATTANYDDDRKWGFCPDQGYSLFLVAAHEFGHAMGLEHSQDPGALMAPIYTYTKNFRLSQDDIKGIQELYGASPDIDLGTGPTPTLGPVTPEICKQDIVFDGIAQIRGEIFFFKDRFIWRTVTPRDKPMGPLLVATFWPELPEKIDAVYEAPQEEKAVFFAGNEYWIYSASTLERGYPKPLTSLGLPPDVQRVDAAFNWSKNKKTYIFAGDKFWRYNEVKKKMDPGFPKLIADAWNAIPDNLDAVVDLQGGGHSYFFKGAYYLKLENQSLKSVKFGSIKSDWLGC
Experimental: The inventors also tested the in vitro activity in order to evaluate the inhibitory activity of P947 and of the tetrapeptide on MMP-2, a gelatinase A expressed constitutively in the vascular wall and overexpressed in the case of inflammation.
Control: commercial tetrapeptide (called peptide B in the study): 4-Abz-Gly-Pro-Dleu-Dala-NHOH (Bachem); inhibitor of MMP-1, MMP-2 and MMP-3.
The detailed protocol is as follows for MMP2s: the product tested is added to a 50 mM. Tris-HCl buffer (pH 7.5) containing 150 mM NaCl, 10 mM […], 0.02% NaN3, 0.05% Brij®35 and 0.35 μM MMP-2 activated by incubation for 120 minutes at 37° C. with 6.67 mM APMA. The fluorescence intensity is measured after preincubation for 30 minutes at 37° C., at lambda ex=340 nm and lambda em=405 nm. The enzyme reaction is initiated by adding 6 μM NFF-2, with subsequent incubation for 90 minutes at 37° C.

human MMP-1 [3] = target: T1, human MMP-1; experiment: In vitro MMP-inhibiting activity (fluorimetry), MMP-1; assay type: biochemical
Experimental: The inventors assayed the in vitro activity of the P947 and P967 gadolinium-chelate contrast products functionalized with matrix metalloproteases inhibitors (MMPs), on human MMP-1 and MMP-3. As regards the affinity of the biovector component, on the receptor, the controls were two peptides:
More precisely, the in vitro MMP-inhibiting activity was evaluated in the following way: • 1. Incubation of the test product in the presence of the MMP enzyme, at 37° C., for a defined period of time, and then measurement of the fluorescence of the medium (t=0). • 2. Induction of the enzyme reaction by addition of the substrate to (which becomes fluorescent when it is cleaved by the enzyme), and then incubation at 37° C. for 40 min. A second measurement of fluorescence is then taken (t=40). • 3. The activity of the MMP enzyme is determined by subtraction of the signal measured by fluorimetry: (t=40)-(t=0). • 4. The results are expressed as percentage inhibition of the activity of the control enzyme. • 5. The standard inhibitory product is TIMP-1.
The products were tested in duplicate, at 10^−5, 10^−7 and 10^−9 M with respect to peptides. Those which contain no peptides were treated in a manner similar to the corresponding functionalized contrast products.

MMP-2 [4] = target: T2, MMP-2; settings: read-out: IC50 on MMP-2 (literature); cited from earlier work
[5] = test system: macrophages located in the plaques; experiment: Ex vivo distribution of PS-NBD in atheroma plaques of ApoE-KO mice; assay type: cell-based
Experimental: For this, samples of heart comprising valves and aortic arch and also the iliac bifurcation are incubated in the presence of PS-NBD.

[6] = test system: primary macrophages from WHHL rabbits; experiment: Ex vivo incubation of WHHL rabbit macrophages/aortic tissues with PS-NBD, fluorescence microscopy; assay type: cell-based; settings: incubated 18 h ex vivo; 35 μM
Experimental: In fact macrophages were isolated from aortic arch and mesenteric lymph node samples, and then incubated for 18 h ex vivo in the presence of PS-NBD. […] More precisely, the rabbit was subjected to exsanguinating perfusion with heparinized newborn calf serum before being sacrificed. The aortic arch, the thoracic aorta and the abdominal aorta were removed. The tissue removed were incubated for 18 hours in cell culture medium to which PS-NBD had been added and were then mounted in frozen blocks in order for histological sections to be cut. Certain sections were observed by fluorescence microscopy and others were immunolabelled using an anti-rabbit macrophage antibody (RAM 11).
• Incubation of the samples at 37° C. in 24-well plates in the presence of PS-NBD at 35 μM for 18 hours. • 2 rinses of the arteries in PBS. • Embedding of each piece of aorta in a freezing gel. • Cryofixation. • Storage of the components in a −80° C. freezer. Immunohistochemistry (HEGP) • The mouse primary antibody Ram 11 is used at a 1/100 dilution. • The secondary antibody (goat anti-mouse) is coupled to alkaline phosphatase. • The chromogen used is ADC (supplied by AbCys). • Fast re counterstaining is carried out.

THP-1 cells = experiment: Uptake of PS-NBD by THP-1 cells, flow cytometry; assay type: cell-based, human; settings: PS-NBD range 13, 32 and 64 μM; 24 hours
Experimental: In vitro validation was performed by comparing the rate of uptake by activated macrophages versus non-activated macrophages (activated THP-1 cells are positive for the PS receptor). […] PS-NBD is a phosphatidylserine comprising only one fatty chain, the other arm linked to the serine head supporting the fluorescence marker NBD.
The THP-1 cell line is a human monocyte line which, after activation, differentiates into macrophages and expresses the phosphatidylserine receptor. These cells were cultured in the presence of phosphatidylserine-NBD.
Protocol with Flow Cytometry • 2 ml of a suspension of THP-1 at 10^6 C/ml are seeded in a 6-well plate. • The THP-1 are activated for 24 hours with 50 nmol/l of PMA. • […] of each of the dilutions (from the solution at 6.25 mmol/l) are incubated for 24 hours. • The excess product is suctioned off. • The cell layer is washed with 1 ml of RPMI without phenol red. • The excess is suctioned off. • The cells are resuspended in 1 ml of PBS (detachment of the cells using a flow of medium over the layer then scraping of the cells which have not detached, using a scraper). • The cells are kept in the dark at 4° C. while awaiting reading. • The fluorescence is read in FL1 at 525 nm by flow cytometry.
PS-NBD range tested: 13, 32 and 64 μM
Groups tested: THP-1/PMA, THP-1/PS-NBD at 5 μM.

| concentration from which significant inhibitory activity on MMP-2 (MMP-2 [2]) | SIGNIFICANT INHIBITORY EFFECT (human MMP-1 [3]; concentration of peptide 10^−5M) | CONCENTRATION OF PEPTIDE (with significant inhibitory effect) (human MMP-1 [3]; tested at 10^−5, 10^−7 and 10^−9 M with respect to peptides) | Compound | IC50 (human MMP-1 [1]) | IC50 (MMP-2 [4]) | interaction with macrophages in atheroma plaques [5] | intracellular accumulation in macrophages [6] | ratio of the negative control to the highest concentration (fluorescence, FL1 525 nm) (THP-1 cells) |
| --- | --- | --- | --- | --- | --- | --- | --- | --- |
| ≥ 10^−5 M | 46% | 10^−5M | 4-Abz-Gly-Pro-Dleu-Dala-NHOH [PEPTIDE B] | 1 µM | 30 µM |  |  |  |
|  |  |  | CCCCCCCCCCCCCCCC(=O)OC[C@H](COP(=O)(O)OC[C@H](N)C(=O)O)OC(=O)CCCCCNc1ccc([N+](=O)[O-])c2nonc12 [PS-NBD] |  |  | interacts specifically with the macrophages located in the plaques | large intracellular accumulation | > 50 |
